From BindingDB's records for doi:10.1021/jm990041+ (Rhone-Poulenc Rorer, 1999)

These compounds were tested against Coagulation factor X (Homo sapiens, UniProt P00742) (assay: Enzyme Assay and Determination of the Inhibition Constants.). Details: not given.
Chain of Coagulation factor X (P00742 41-179 limits assumed): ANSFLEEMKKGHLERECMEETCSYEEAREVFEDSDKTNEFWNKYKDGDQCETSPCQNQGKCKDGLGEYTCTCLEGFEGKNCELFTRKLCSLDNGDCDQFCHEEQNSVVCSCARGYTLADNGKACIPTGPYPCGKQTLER
Chain of Coagulation factor X (P00742 235-488 limits assumed): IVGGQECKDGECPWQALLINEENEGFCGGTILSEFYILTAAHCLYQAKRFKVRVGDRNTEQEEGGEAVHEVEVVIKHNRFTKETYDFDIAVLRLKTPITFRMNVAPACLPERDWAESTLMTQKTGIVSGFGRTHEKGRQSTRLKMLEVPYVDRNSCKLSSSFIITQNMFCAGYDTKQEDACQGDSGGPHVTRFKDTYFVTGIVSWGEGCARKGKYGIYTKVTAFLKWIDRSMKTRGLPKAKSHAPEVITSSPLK

In the case of `C[n+]1ccc(-c2ccc(S(=O)(=O)N[C@H]3CCN(Cc4cccc(C(=N)N)c4)C3=O)cc2)cc1` [4-(4-{[(3S)-1-[(3-carbamimidoylphenyl)methyl]-2-oxopyrrolidin-3-yl]sulfamoyl}phenyl)-1-methylpyridin-1-ium], the Ki is reported as > 1 µM.

What follows are compounds tested against T1, Serine protease 1 (Bos taurus, UniProt P00760) in the same assay as above. Details: not given.
T1 sequence (P00760 whole entry): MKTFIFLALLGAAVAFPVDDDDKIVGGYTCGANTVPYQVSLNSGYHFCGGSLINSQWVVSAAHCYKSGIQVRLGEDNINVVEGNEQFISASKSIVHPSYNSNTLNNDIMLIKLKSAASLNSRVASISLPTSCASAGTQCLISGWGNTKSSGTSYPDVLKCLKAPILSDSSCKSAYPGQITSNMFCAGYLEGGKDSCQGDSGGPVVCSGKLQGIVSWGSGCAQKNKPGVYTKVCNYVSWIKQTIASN

`N=C(N)c1cccc(CN2CC[C@H](NS(=O)(=O)c3ccc(-c4cccnc4)s3)C2=O)c1` [3-[2-Oxo-3-(S)-(5-pyridin-3-ylthiophene-2-ylsulfonylamino)-pyrrolidin-1-ylmethyl]benzamidine] and `N=C(N)c1cccc(CN2CC[C@H](NS(=O)(=O)c3ccc(-c4ccncc4)s3)C2=O)c1` [3-{[(3S)-2-oxo-3-{[5-(pyridin-4-yl)thiophene-2-]sulfonamido}pyrrolidin-1-yl]methyl}benzene-1-carboximidamide] cannot be ordered by Ki: > 2.9 µM for the first, > 2.9 µM for the second.

`N=C(N)c1cccc(CN2CC[C@H](NS(=O)(=O)c3ccc(-c4ccon4)s3)C2=O)c1` [3-[3-(S)-(5-Isoxazol-3-ylthiophene-2-ylsulfonylamino)-2-oxopyrrolidin-1-ylmethyl]benzamidine] and `N=C(N)c1ccc(N)c(CN2CC[C@H](NS(=O)(=O)c3ccc(-c4ccon4)s3)C2=O)c1` [4-Amino-3-[3-(S)-(5-isoxazol-3-ylthiophene-2-ylsulfonylamino)-2-oxopyrrolidin-1-ylmethyl]benzamidine] are within 1.5-fold of each other in Ki: 1.9 µM for the first, 1.7 µM for the second.

`N=C(N)c1cccc(CN2CC[C@H](NS(=O)(=O)c3ccc(-c4cccnc4)cc3)C2=O)c1` [3-{[(3S)-2-oxo-3-{[4-(pyridin-3-yl)benzene]sulfonamido}pyrrolidin-1-yl]methyl}benzene-1-carboximidamide] and `N=C(N)c1cccc(CN2CC[C@H](NS(=O)(=O)c3ccc(-c4ccncc4)cc3)C2=O)c1` [3-{[(3S)-2-oxo-3-{[4-(pyridin-4-yl)benzene]sulfonamido}pyrrolidin-1-yl]methyl}benzene-1-carboximidamide] cannot be ordered by Ki: > 2.9 µM for the first, > 2.9 µM for the second.

Compared with `N=C(N)c1cccc(CN2CC[C@H](NS(=O)(=O)c3ccc(-c4ccccn4)s3)C2=O)c1` [3-{[(3S)-2-oxo-3-{[5-(pyridin-2-yl)thiophene-2-]sulfonamido}pyrrolidin-1-yl]methyl}benzene-1-carboximidamide], `COc1nccc(-c2ccc(S(=O)(=O)N[C@H]3CCN(Cc4cccc(C(=N)N)c4)C3=O)s2)n1` [3-{[(3S)-3-{[5-(2-methoxypyrimidin-4-yl)thiophene-2-]sulfonamido}-2-oxopyrrolidin-1-yl]methyl}benzene-1-carboximidamide] is higher in Ki: 2.1 µM for the first, > 2.9 µM for the second.

`Cn1ccnc1-c1ccc(S(=O)(=O)N[C@H]2CCN(Cc3cccc(C(=N)N)c3)C2=O)cc1` [3-{[(3S)-3-{[4-(1-methyl-1H-imidazol-2-yl)benzene]sulfonamido}-2-oxopyrrolidin-1-yl]methyl}benzene-1-carboximidamide] and `C[n+]1ccc(-c2ccc(S(=O)(=O)N[C@H]3CCN(Cc4cccc(C(=N)N)c4)C3=O)cc2)cc1` [4-(4-{[(3S)-1-[(3-carbamimidoylphenyl)methyl]-2-oxopyrrolidin-3-yl]sulfamoyl}phenyl)-1-methylpyridin-1-ium] cannot be ordered by Ki: > 2.9 µM for the first, > 2.9 µM for the second.

Compared with `N=C(N)c1cccc(CN2CC[C@H](NS(=O)(=O)c3ccc(-c4cc[n+]([O-])cc4)cc3)C2=O)c1` [4-(4-{[(3S)-1-[(3-carbamimidoylphenyl)methyl]-2-oxopyrrolidin-3-yl]sulfamoyl}phenyl)-1-oxidopyridin-1-ium], `N=C(N)c1ccc(N)c(CN2CC[C@H](NS(=O)(=O)c3ccc(-c4cccnc4)s3)C2=O)c1` [4-amino-3-{[(3S)-2-oxo-3-{[5-(pyridin-3-yl)thiophene-2-]sulfonamido}pyrrolidin-1-yl]methyl}benzene-1-carboximidamide] is lower in Ki: > 2.9 µM for the first, 1.5 µM for the second.

Compared with `N=C(N)c1ccc(F)c(CN2CC[C@H](NS(=O)(=O)c3ccc(-c4cccnc4)s3)C2=O)c1` [4-fluoro-3-[((3S)-2-oxo-3-{[(5-pyridin-3-ylthien-2-yl)sulfonyl]amino}pyrrolidin-1-yl)methyl]benzenecarboximidamide], `N=C(N)c1ccc(O)c(CN2CC[C@H](NS(=O)(=O)c3ccc(-c4ccon4)s3)C2=O)c1` [4-hydroxy-3-{[(3S)-3-{[5-(1,2-oxazol-3-yl)thiophene-2-]sulfonamido}-2-oxopyrrolidin-1-yl]methyl}benzene-1-carboximidamide] is lower in Ki: > 2.9 µM for the first, 2.9 µM for the second. The second binds more tightly here.

Same assay, conditions: pH 7.5; 22 °C

Compared with `COc1ccc2ccc(S(=O)(=O)N[C@H]3CCN(Cc4cc(C(=N)N)ccc4OCC(=O)O)C3=O)cc2c1` [2-(4-carbamimidoyl-2-{[(3S)-3-[(7-methoxynaphthalene-2-)sulfonamido]-2-oxopyrrolidin-1-yl]methyl}phenoxy)acetic acid], `COC(=O)COc1ccc(C(=N)N)cc1CN1CC[C@H](NS(=O)(=O)c2ccc3ccc(OC)cc3c2)C1=O` [methyl 2-(4-carbamimidoyl-2-{[(3S)-3-[(7-methoxynaphthalene-2-)sulfonamido]-2-oxopyrrolidin-1-yl]methyl}phenoxy)acetate] is lower in Ki: > 2.9 µM for the first, 0.012 µM for the second. The second binds more tightly here.

First: COc1ccc2ccc(S(=O)(=O)N[C@H]3CCN(Cc4ccc(O)c(C(=N)N)c4)C3=O)cc2c1 [2-hydroxy-5-{[(3S)-3-[(7-methoxynaphthalene-2-)sulfonamido]-2-oxopyrrolidin-1-yl]methyl}benzene-1-carboximidamide]
Second: COc1ccc2ccc(S(=O)(=O)N[C@H]3CCN(Cc4cc(C(=N)N)ccc4O)C3=O)cc2c1 [4-hydroxy-3-{[(3S)-3-[(7-methoxynaphthalene-2-)sulfonamido]-2-oxopyrrolidin-1-yl]methyl}benzene-1-carboximidamide]
The Ki of the first is higher: > 2.9 µM for the first, 0.305 µM for the second.

First: COc1ccc2ccc(S(=O)(=O)N[C@H]3CCN(Cc4cc(N)cc(C(=N)N)c4)C3=O)cc2c1 [3-Amino-5-[3-(S)-(7-methoxynaphthalen-2-ylsulfonylamino)-2-oxopyrrolidin-1-ylmethyl]benzamidine]
Second: COc1ccc2ccc(S(=O)(=O)N[C@H]3CCN(Cc4cccc(C(=N)N)c4)C3=O)cc2c1 [3-{[(3S)-3-[(7-methoxynaphthalene-2-)sulfonamido]-2-oxopyrrolidin-1-yl]methyl}benzene-1-carboximidamide]
The Ki of the first is higher: > 2.9 µM for the first, 0.853 µM for the second. The second binds more tightly here.

`N=C(N)c1cccc(CN2CC[C@H](NS(=O)(=O)c3ccc(-c4ccccc4)cc3)C2=O)c1` [3-{[(3S)-2-oxo-3-[(4-phenylbenzene)sulfonamido]pyrrolidin-1-yl]methyl}benzene-1-carboximidamide] and `N=C(N)c1cccc(CN2CC[C@H](NS(=O)(=O)c3ccc(-c4ccccn4)cc3)C2=O)c1` [3-{[(3S)-2-oxo-3-{[4-(pyridin-2-yl)benzene]sulfonamido}pyrrolidin-1-yl]methyl}benzene-1-carboximidamide] cannot be ordered by Ki: > 2.9 µM for the first, > 2.9 µM for the second.

Going from `COc1ccc2ccc(S(=O)(=O)N(C)[C@H]3CCN(Cc4cccc(C(=N)N)c4)C3=O)cc2c1` [3-{[(3S)-3-[(7-methoxynaphthalene-2-)(methyl)sulfonamido]-2-oxopyrrolidin-1-yl]methyl}benzene-1-carboximidamide] to `COc1ccc2ccc(S(=O)(=O)N(C)[C@H]3CCN(Cc4cc(C(=N)N)ccc4N)C3=O)cc2c1` [4-amino-3-{[(3S)-3-[(7-methoxynaphthalene-2-)(methyl)sulfonamido]-2-oxopyrrolidin-1-yl]methyl}benzene-1-carboximidamide], the Ki falls from 0.704 µM to 0.189 µM (3.7-fold).

First: COc1ccc2ccc(S(=O)(=O)N[C@H]3CCN(Cc4cc(C(=N)N)ccc4N)C3=O)cc2c1 [4-amino-3-{[(3S)-3-[(7-methoxynaphthalene-2-)sulfonamido]-2-oxopyrrolidin-1-yl]methyl}benzene-1-carboximidamide]
Second: COc1ccc2ccc(S(=O)(=O)N(C)[C@H]3CCN(Cc4cc(C(=N)N)ccc4NC(C)=O)C3=O)cc2c1 [N-(4-carbamimidoyl-2-{[(3S)-3-[(7-methoxynaphthalene-2-)(methyl)sulfonamido]-2-oxopyrrolidin-1-yl]methyl}phenyl)acetamide]
The Ki of the first is lower: 0.299 µM for the first, > 2.9 µM for the second. The first binds more tightly here.
